# Reference: publication PMC5394143 (Clinical Drug Investigation, 2017)
# Like-named read-outs stand apart in the source and are kept apart here.
# Experiments:
# CYP3A4 [1] = conditions: cited from earlier work
# CYP3A4 [2] = conditions: cited from earlier work; remark: listed apart in the source
# CYP1A2 = conditions: single dose of 50 mg osilodrostat
# CYP2D6 = CYP2D6 (Homo sapiens, UniProt P10635); conditions: single dose of 50 mg osilodrostat
# CYP3A4/5 = conditions: single dose of 50 mg osilodrostat
# [3] = safety set, 20 subjects
# clinical [4] = conditions: both, human, plasma, po, 50 mg
# [5] = cited from earlier work
# [6] = test system: urinary free cortisol (UFC); conditions: 2–30 mg twice daily, 10 weeks, 11/12 patients with Cushing’s disease; cited from earlier work
# [7] = test system: urinary free cortisol (UFC); conditions: after 22 weeks of treatment, 15/19 patients; cited from earlier work
# clinical [8] = conditions: both, human, plasma, oral, 50 mg
# [9] = for AUC(0-inf) / Cmax / half-life / AUC(0-t): both, human, plasma; for AUC(0-inf) / Cmax / half-life: oral; for AUC(0-t): po
# [10] = substrate alone, geometric mean (CV%)
# [11] = C max, substrate alone, geometric mean (CV%)
# Chain of CYP2D6 (P10635 whole entry): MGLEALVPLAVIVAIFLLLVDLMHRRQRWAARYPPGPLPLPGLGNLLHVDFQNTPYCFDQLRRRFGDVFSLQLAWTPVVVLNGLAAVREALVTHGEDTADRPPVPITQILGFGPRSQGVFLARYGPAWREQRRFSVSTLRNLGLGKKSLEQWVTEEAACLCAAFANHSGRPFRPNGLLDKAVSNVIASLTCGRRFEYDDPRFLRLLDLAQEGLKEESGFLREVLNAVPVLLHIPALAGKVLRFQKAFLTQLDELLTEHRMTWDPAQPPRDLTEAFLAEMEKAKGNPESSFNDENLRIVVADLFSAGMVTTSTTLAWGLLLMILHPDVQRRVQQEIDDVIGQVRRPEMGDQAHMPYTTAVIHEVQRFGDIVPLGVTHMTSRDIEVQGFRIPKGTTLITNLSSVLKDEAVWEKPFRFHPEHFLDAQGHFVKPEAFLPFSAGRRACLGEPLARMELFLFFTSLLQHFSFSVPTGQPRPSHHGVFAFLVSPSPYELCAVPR
smiles,measurement,setting,value
"CC(=O)N1CCN(c2ccc(OCC3COC(Cn4ccnc4)(c4ccc(Cl)cc4Cl)O3)cc2)CC1 (stereo not drawn) [Ketoconazole, ketoconazole]","FDA inhibitor classification, CYP3A4",CYP3A4 [1]; based on midazolam AUC change,"strong inhibitor (strong inhibitor, ≥5-fold increase in AUC)"
same,increase in midazolam AUC after ketoconazole administration,CYP3A4 [1],≤ 16 fold
"Clc1ccc(C(c2ccccc2Cl)C(Cl)Cl)cc1 (stereo not drawn) [Mitotane, mitotane]",CYP3A4 induction,CYP3A4 [2],strong inducer
N#Cc1ccc([C@H]2CCc3cncn32)c(F)c1 [Osilodrostat],"FDA inhibitor classification, CYP1A2",CYP1A2,"moderate inhibitor (moderate inhibitor, ≥2- but <5-fold increase in AUC)"
same,"FDA inhibitor classification, CYP2D6",CYP2D6,"weak inhibitor (weak inhibitor, ≥1.25- but <2-fold increase in AUC)"
same,"FDA inhibitor classification, CYP3A4/5",CYP3A4/5,"weak inhibitor (weak inhibitor, ≥1.25- but <2-fold increase in AUC)"
same,fatigue (suspected drug related),[3],15%
same,flatulence and diarrhea (suspected drug related),[3],5%
same,grade 3 or 4 AEs or serious AEs,[3],"No grade 3 or 4 AEs, or serious AEs"
same,subjects with AEs suspected to be drug related,[3],30%
same,AUC(0-inf),clinical [4],3430 ng·h/mL
same,Cmax,clinical [4],392 ng/mL
same,Tmax,clinical [4],~1.53 h
same,half-life,clinical [4],4.73 h
same,half-life,[5],3 to 5 h
same,patients with normalized UFC,[6],92%
same,patients with normalized UFC,[7],79%
"Cn1c(=O)c2c(ncn2C)n(C)c1=O [Caffeine, caffeine]",AUC(0-inf),clinical [8],41900 ng·h/mL
same,AUC(0-t),clinical [8],41100 ng·h/mL
same,Cmax,clinical [8],2640 ng/mL
same,half-life,clinical [8],7.39 h
same,AUC(0-inf),[9],16200 ng·h/mL
same,Cmax,[9],2500 ng/mL
same,half-life,[9],5.39 h
same,AUC(0-t),[9],17200 ng·h/mL
same,CL/F,[9]; [10],6.18 (44.8) L/h
"Cc1ncc2n1-c1ccc(Cl)cc1C(c1ccccc1F)=NC2 [Midazolam, midazolam]",AUC(0-t),clinical [8],31.7 ng·h/mL
same,Cmax,clinical [8],12.8 ng/mL
same,half-life,clinical [8],4.81 h
same,AUC(0-inf),[9],22 ng·h/mL
same,half-life,[9],4.44 h
same,Cmax,[9]; [11],8.78 ng/mL
same,CL/F,[9]; [10],91.0 (39.6) L/h
"COc1ccc2c(c1)[C@]13CCCC[C@@H]1[C@H](C2)N(C)CC3 [Dextromethorphan, dextromethorphan]",AUC(0-inf),[9],22.8 ng·h/mL
same,half-life,[9],7.63 h
same,Cmax,[9]; [11],1.24 ng/mL
same,CL/F,[9]; [10],1310 (193.8) L/h
"COc1ccc2[nH]c([S+]([O-])Cc3ncc(C)c(OC)c3C)nc2c1 (stereo not drawn) [Omeprazole, omeprazole]",AUC(0-inf),clinical [8],885 ng·h/mL
same,AUC(0-t),clinical [8],852 ng·h/mL
same,Cmax,clinical [8],420 ng/mL
same,AUC(0-inf),[9],618 ng·h/mL
same,half-life,[9],0.77 h
same,AUC(0-t),[9],460 ng·h/mL
same,C max,[9]; [10],271 (69.7) ng/mL
same,CL/F,[9]; [10],32.3 (92.9) L/h
